12 compounds from patent publication US20240208956A1, “1,3,4-OXADIAZOLE THIOCARBONYL COMPOUNDS AS HISTONE DEACETYLASE 6 INHIBITOR, AND PHARMACEUTICAL COMPOSITION COMPRISING THE SAME” (CHONG KUN DANG PHARMACEUTICAL CORP., priority 2021, published 2024) can be followed below.

The target of one assay is HDAC1 (Homo sapiens (Human), UniProt Q13547). As to the kind of experiment: HDAC enzyme activity inhibition (in vitro), HDAC1 Fluorimetric Drug Discovery Assay Kit. In kind it is biochemical. Conditions: samples at 100, 1000 and 10000 nM; 37° C. 60 minutes; fluorescence Ex 390 nm, Em 460 nm. Here is the method:
Experimental Example 1. Confirmation of HDAC Enzyme Activity Inhibition (In Vitro)
(§1) An HDAC enzyme inhibitory capacity of test material was measured by using HDAC1 Fluorimetric Drug Discovery Assay Kit (Enzolifesciences: BML-AK511) and HDAC6 human recombinant (Calbiochem: 382180). For a HDAC1 assay, samples were treated at a concentration of 100 nM, 1000 nM and 10000 nM. For an HDAC6 assay, samples were treated at a concentration of 0.1 nM, 1 nM, 10 nM, 100 nM and 1000 nM. After the sample treatment, a reaction was continued at 37° C. for 60 minutes, treated with a developer, and subjected to reaction at 37° C. for 30 minutes, after which fluorescence intensity (Ex 390 nm, Em 460 nm) was measured by using FlexStation3 (Molecular device). For final result values, each […] value was calculated with GraphPad Prism 4.0 program.

For a further assay, the target named is HDAC6 human recombinant (Homo sapiens (Human), UniProt Q9UBN7). Description: HDAC enzyme activity inhibition (in vitro), HDAC6 fluorimetric assay. The class given is biochemical. The settings on record: samples at 0.1-1000 nM; 37° C. 60 minutes; fluorescence Ex 390 nm, Em 460 nm. Here is the method:
Confirmation of HDAC Enzyme Activity Inhibition (In Vitro)
as §1

pIC50: −log10 of the molar value. Some results are limits rather than exact numbers.

HDAC1, sequence (Q13547 whole entry): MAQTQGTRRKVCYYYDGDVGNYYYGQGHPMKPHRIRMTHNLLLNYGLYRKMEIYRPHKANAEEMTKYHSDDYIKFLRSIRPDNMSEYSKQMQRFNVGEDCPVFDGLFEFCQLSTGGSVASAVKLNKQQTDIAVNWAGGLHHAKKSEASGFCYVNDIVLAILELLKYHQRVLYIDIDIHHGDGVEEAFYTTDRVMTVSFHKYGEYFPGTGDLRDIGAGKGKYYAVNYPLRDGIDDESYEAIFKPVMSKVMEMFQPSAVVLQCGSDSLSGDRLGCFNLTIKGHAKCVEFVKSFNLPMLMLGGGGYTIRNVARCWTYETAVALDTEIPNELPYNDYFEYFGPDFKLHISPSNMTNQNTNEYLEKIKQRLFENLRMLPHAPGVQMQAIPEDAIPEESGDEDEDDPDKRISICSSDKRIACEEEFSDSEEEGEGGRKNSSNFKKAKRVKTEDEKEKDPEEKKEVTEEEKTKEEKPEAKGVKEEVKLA
HDAC6 human recombinant, sequence (Q9UBN7 whole entry): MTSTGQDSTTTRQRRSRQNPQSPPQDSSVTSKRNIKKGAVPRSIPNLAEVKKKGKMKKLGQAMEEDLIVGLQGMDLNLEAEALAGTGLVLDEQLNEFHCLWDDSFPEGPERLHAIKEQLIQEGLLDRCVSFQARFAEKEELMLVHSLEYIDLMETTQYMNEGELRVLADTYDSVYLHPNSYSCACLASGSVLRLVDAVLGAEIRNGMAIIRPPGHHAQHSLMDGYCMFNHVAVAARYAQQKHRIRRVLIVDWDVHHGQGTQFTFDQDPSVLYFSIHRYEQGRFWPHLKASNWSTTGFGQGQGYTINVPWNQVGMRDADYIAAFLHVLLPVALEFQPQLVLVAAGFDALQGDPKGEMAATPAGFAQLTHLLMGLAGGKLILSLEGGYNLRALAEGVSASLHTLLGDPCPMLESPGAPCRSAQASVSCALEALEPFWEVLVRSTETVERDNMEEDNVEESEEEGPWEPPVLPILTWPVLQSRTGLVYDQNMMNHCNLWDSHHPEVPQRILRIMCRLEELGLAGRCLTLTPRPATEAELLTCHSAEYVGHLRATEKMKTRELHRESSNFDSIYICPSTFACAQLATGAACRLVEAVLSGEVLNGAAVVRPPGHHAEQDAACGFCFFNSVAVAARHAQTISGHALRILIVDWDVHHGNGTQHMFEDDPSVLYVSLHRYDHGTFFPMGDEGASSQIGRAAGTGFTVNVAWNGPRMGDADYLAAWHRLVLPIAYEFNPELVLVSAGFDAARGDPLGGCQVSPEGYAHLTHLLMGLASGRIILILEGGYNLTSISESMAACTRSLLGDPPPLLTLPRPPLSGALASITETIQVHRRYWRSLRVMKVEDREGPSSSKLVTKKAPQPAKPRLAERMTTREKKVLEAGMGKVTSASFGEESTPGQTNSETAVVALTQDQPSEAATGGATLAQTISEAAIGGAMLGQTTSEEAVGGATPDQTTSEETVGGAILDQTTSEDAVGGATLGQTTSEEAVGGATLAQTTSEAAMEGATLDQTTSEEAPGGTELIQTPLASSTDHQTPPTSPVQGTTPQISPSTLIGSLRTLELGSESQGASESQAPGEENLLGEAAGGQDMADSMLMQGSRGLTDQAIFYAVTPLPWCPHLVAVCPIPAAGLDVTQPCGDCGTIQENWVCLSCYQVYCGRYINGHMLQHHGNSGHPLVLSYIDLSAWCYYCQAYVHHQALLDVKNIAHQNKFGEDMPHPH

A word on the pIC50: it is −log10 of the IC50, conventionally taken in molar units. On to `CN1CC2(C1)CN(C(=S)N(Cc1ccc(-c3nnc(C(F)F)o3)cc1F)c1ccc(F)cc1F)C2` [Compound 12, N-(4-(5-(difluoromethyl)-1,3,4-oxadiazol-2-yl)-2-fluorobenzyl)-N-(2,4-difluorophenyl)-6-methyl-2,6-diazaspiro[3.3]heptan-2-carbothioamide], for which the pIC50 on HDAC1 is < 5.00; at HDAC6 human recombinant, 6.87.
On to `CC(C)N1CC2(CN(C(=S)N(Cc3ccc(-c4nnc(C(F)F)o4)cc3F)c3ccc(F)c(Cl)c3)C2)C1` [Compound 28, N-(3-chloro-4-fluorophenyl)-N-(4-(5-(difluoromethyl)-1,3,4-oxadiazol-2-yl)-2-fluorobenzyl)-6-isopropyl-2,6-diazaspiro[3.3]heptan-2-carbothioamide], for which the results for the pIC50 at HDAC1 and at HDAC6 human recombinant were < 5.00 and 7.11, respectively.
In the same order, the values of `FC(F)c1nnc(-c2ccc(CN(C(=S)N3CCN(C4COC4)CC3)c3ccccc3)cc2)o1` [Compound 5, N-(4-(5-(difluoromethyl)-1,3,4-oxadiazol-2-yl)benzyl)-4-(oxetan-3-yl)-N-phenylpiperazin-1-carbothioamide] are < 5.00 and 7.43.
In the same order, the values of `Fc1ccc(N(Cc2ccc(-c3nnc(C(F)F)o3)cc2F)C(=S)N2CC3(C2)CN(C2COC2)C3)cc1` [Compound 19, N-(4-(5-(difluoromethyl)-1,3,4-oxadiazol-2-yl)-2-fluorobenzyl)-N-(4-fluorophenyl)-6-(oxetan-3-yl)-2,6-diazaspiro[3.3]heptan-2-carbothioamide] are < 5.00 and 7.27.
For `CN1CC2(C1)CN(C(=S)N(Cc1ccc(-c3nnc(C(F)F)o3)cc1F)c1ccc(Cl)c(Cl)c1)C2` [Compound 23, N-(3,4-dichlorophenyl)-N-(4-(5-(difluoromethyl)-1,3,4-oxadiazol-2-yl)-2-fluorobenzyl)-6-methyl-2,6-diazaspiro[3.3]heptan-2-carbothioamide], the pIC50 at HDAC1 is < 5.00; at HDAC6 human recombinant it was 7.21.
Take `CN1CC2(CCN(C(=S)N(Cc3ccc(-c4nnc(C(F)F)o4)cc3F)c3ccc(F)c(F)c3)CC2)C1` [Compound 44, N-(4-(5-(difluoromethyl)-1,3,4-oxadiazol-2-yl)-2-fluorobenzyl)-N-(3,4-difluorophenyl)-2-methyl-2,7-diazaspiro[3.5]nonan-7-carbothioamide]: the negative-log IC50 (pIC50) on HDAC1 is < 5.00; on HDAC6 human recombinant, 7.10.
As to `CN1CC2(C1)CN(C(=S)N(Cc1ccc(-c3nnc(C(F)F)o3)cc1F)c1cccc(F)c1)C2` [Compound 36, N-(4-(5-(difluoromethyl)-1,3,4-oxadiazol-2-yl)-2-fluorobenzyl)-N-(3-fluorophenyl)-6-methyl-2,6-diazaspiro[3.3]heptan-2-carbothioamide], the pIC50 against HDAC1 is < 5.00; at HDAC6 human recombinant, 7.37.
With `Fc1cccc(N(Cc2ccc(-c3nnc(C(F)F)o3)cc2)C(=S)N2CC3(C2)CN(C2COC2)C3)c1` [Compound 15, N-(4-(5-(difluoromethyl)-1,3,4-oxadiazol-2-yl)benzyl)-N-(3-fluorophenyl)-6-(oxetan-3-yl)-2,6-diazaspiro[3.3]heptan-2-carbothioamide], the negative logarithm of the IC50 (pIC50) was < 5.00 against HDAC1 and 7.27 on HDAC6 human recombinant.
For `Fc1ccc(N(Cc2ccc(-c3nnc(C(F)F)o3)cc2F)C(=S)N2CC3(C2)CN(C2COC2)C3)cc1F` [Compound 34, N-(4-(5-(difluoromethyl)-1,3,4-oxadiazol-2-yl)-2-fluorobenzyl)-N-(3,4-difluorophenyl)-6-(oxetan-3-yl)-2,6-diazaspiro[3.3]heptan-2-carbothioamide], the pIC50 at HDAC1 was < 5.00; at HDAC6 human recombinant, 7.33.
With `Fc1ccc(N(Cc2ccc(-c3nnc(C(F)F)o3)cc2F)C(=S)N2C[C@@H]3C[C@H]2CN3C2COC2)cc1F` [Compound 43, (1S,4S)—N-(4-(5-(difluoromethyl)-1,3,4-oxadiazol-2-yl)-2-fluorobenzyl)-N-(3,4-difluorophenyl)-5-(oxetan-3-yl)-2,5-diazabicyclo[2.2.1]heptan-2-carbothioamide], the values for the pIC50 on HDAC1 and at HDAC6 human recombinant were < 5.00 and 7.11, respectively.
Regarding `CN1CC2(C1)CN(C(=S)N(Cc1ccc(-c3nnc(C(F)F)o3)cc1F)c1ccccc1)C2` [Compound 10, N-(4-(5-(difluoromethyl)-1,3,4-oxadiazol-2-yl)-2-fluorobenzyl)-6-methyl-N-phenyl-2,6-diazaspiro[3.3]heptan-2-carbothioamide], the figures for the pIC50 against HDAC1 and on HDAC6 human recombinant were < 5.00 and 7.35, respectively.
In the same order, the values of `Fc1cccc(N(Cc2ccc(-c3nnc(C(F)F)o3)cc2F)C(=S)N2CC3(C2)CN(C2COC2)C3)c1` [Compound 38, N-(4-(5-(difluoromethyl)-1,3,4-oxadiazol-2-yl)-2-fluorobenzyl)-N-(3-fluorophenyl)-6-(oxetan-3-yl)-2,6-diazaspiro[3.3]heptan-2-carbothioamide] are < 5.00 and 7.29.
